For eleven compounds, EC50 and IC50 results are on record in patent US20230391772A1, “METHODS AND COMPOSITIONS FOR TARGETED PROTEIN DEGRADATION” (Ranok Therapeutics (Hangzhou) Co. Ltd., priority 2020, published 2023).

Usually EC50 stands for the concentration that produces a half-maximal response.

The structures appear in SMILES notation. Bounds are passed on as bounds.

Assay [1] deals with MIA PaCa-2 human pancreatic carcinoma. In words: MIA PaCa-2 CCK-8 proliferation assay. It is filed as cell-based. The following applies: Homo sapiens, MIA PaCa-2, 72 h, MIA PaCa-2 cells. The procedure: The following cancer cell lines were employed: BT-474 human breast carcinoma (ATCC, #HTB-20); MIA PaCa-2 human pancreatic carcinoma [2 copies KRAS(G12C)](ATCC, #CRL-1420); NCI-H23 human non-small cell lung cancer [1 copy KRAS(G12C)](ATCC, #CRL-5800); NCI-H358 human non-small cell lung cancer [1 copy KRAS(G12C)](ATCC, #CRL-5807); LU65A human lung carcinoma (Pharmaron, Beijing, China). Cell lines were cultured essentially according to ATCC and Pharmaron recommendations.
Cancer Cell Line Proliferation (CCK-8) Assays
3-fold serial dilutions of each test compound were prepared ranging from 20 μM to 1.02 nM.
% Inhibition=100−(D−B)/(S−B)*100%. • S: Absorbance of cells treated with DMSO • D: Absorbance of compound-treated cells • B: Absorbance of medium with DMSO without cells

A further assay has as its target KRAS(G12C) (Homo sapiens, UniProt P01116, G12C). Put plainly: KRAS(G12C)/SOS1 homogeneous time-resolved fluorescence (HTRF) assay. The following applies: absence of GTP, 4° C. for 3 hr, read-out: KRAS (G12C) binding. More on the design: purchased Cisbio 63ADK000CB16PEG. The procedure:
KRAS(G12C)/SOS1 Homogeneous Time-Resolved Fluorescence (HTRF) Assay
Binding of test compounds to KRAS(G12C) protein, which in turn blocks KRAS(G12C) interaction with the SOS1 protein, was measured in the absences of GTP by homogeneous time-resolved fluorescence (HTRF) using the KRAS-G12C/SOS1 Binding Assay Kit (Cisbio, #63ADK000CB16PEG), following the manufacturer's instructions, except as noted. 3-fold serial dilutions of each test compound were prepared ranging from […] to 1.02 nM. The test compound was mixed and incubated with reaction components, incubated in a sealed plate at 4° C. for 3 hr and fluorescence was measured using a PerkinElmer Envision plate reader.
In general terms: TR-FRET usually uses a lanthanide donor and a delayed reading to cut background.

The target of the next assay is T1, HSP90a protein (Homo sapiens, UniProt P07900).
T1 construct: purchased BPS Bioscience 50298
In words: HSP90α-binding fluorescent polarization (FP) assay, BODIPY-labeled RNK04010 probe. The following applies: FP competition with RNK04010 (BODIPY-labeled), 5 nM, 300 min at 25° C. The protocol: HSP90α-Binding Fluorescent Polarization (FP) Assay
Binding of test compounds to HSP90a protein was measured by fluorescent polarization (FP) using the HSP90a (N-terminal) Assay Kit (BPS Bioscience, #50298), following the manufacturer's instructions, except as noted. Fluorescently labeled HSP90-binding compounds, either the provided FITC-geldanamycin (5 nM final concentration) or RNK04010, a triazolone-based HSP90 binding small molecule labeled with BODIPY through a piperizine-phenyl linker (5 nM final concentration) were employed. A 2.5-fold serial dilution of each test compound ranging from 20 μM to 5.2 nM was assayed for binding to HSP90a. After the final step of adding HSP90a protein to each assay well, plates were mixed by brief shaking, incubated at 25° C. for 120 min for FITC-geldanamycin or 300 min for RNK04010, and fluorescence was measured using a PerkinElmer EnVision Plate Reader.

Chain of KRAS(G12C) (P01116 1-188 isoform P01116-2 G12C): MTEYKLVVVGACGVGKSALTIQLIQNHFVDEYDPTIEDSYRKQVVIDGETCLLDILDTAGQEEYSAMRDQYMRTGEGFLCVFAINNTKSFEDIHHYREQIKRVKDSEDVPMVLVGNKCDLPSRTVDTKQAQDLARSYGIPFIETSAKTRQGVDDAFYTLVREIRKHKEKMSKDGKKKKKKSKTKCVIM

Consider `C=CC(=O)N1CCN(c2nc(OCCN3CCC(C(=O)N4CCN(Cc5ccc(-n6c(C(=O)NC)nnc6-c6cc(C(C)C)c(O)cc6O)cc5)CC4)CC3)nc3c2CCN(c2cccc4cccc(Cl)c24)C3)C[C@@H]1CC#N` [Compound 239, (S)-4-(4-((4-(1-(2-((4-(4-acryloyl-3-(cyanomethyl)piperazin-1-yl)-7-(8-chloronaphthalen-1-yl)-5,6,7,8-tetrahydropyrido[3,4-d]pyrimidin-2-yl)oxy)ethyl)piperidine-4-carbonyl)piperazin-1-yl)methyl)phenyl)-5-(2,4-dihydroxy-5-isopropylphenyl)-N-methyl-4H-1,2,4-triazole-3-carboxamide], for which the EC50 in assay [1] was in the range of 100 to 1000 nM. The IC50 at KRAS(G12C) was under 100 nM.
`C=CC(=O)N1CCN(c2nc(OC[C@@H]3CCN3C(=O)C3CCN(Cc4ccc(-n5c(C(N)=O)nnc5-c5cc(C(C)C)c(O)cc5O)cc4)CC3)nc3c2CCN(c2cccc4cccc(Cl)c24)C3)C[C@@H]1CC#N` [Compound 190, 4-(4-((4-((S)-2-(((4-((S)-4-acryloyl-3-(cyanomethyl)piperazin-1-yl)-7-(8-chloronaphthalen-1-yl)-5,6,7,8-tetrahydropyrido[3,4-d]pyrimidin-2-yl)oxy)methyl)azetidine-1-carbonyl)piperidin-1-yl)methyl)phenyl)-5-(2,4-dihydroxy-5-isopropylphenyl)-4H-1,2,4-triazole-3-carboxamide] displayed an EC50 in assay [1] of 100 to 1000 nM. Besides, the IC50 on KRAS(G12C) fell in the range of 100 to 1000 nM.
In the case of `C=CC(=O)N1CCN(c2nc(OC[C@@H]3CCN(C(=O)C4CCN(Cc5ccc(-n6c(O)nnc6-c6cc(C)c(O)cc6O)cc5)CC4)C3)nc3c2CCN(c2cccc4cccc(Cl)c24)C3)C[C@@H]1CC#N` [Compound 180, 2-((S)-1-acryloyl-4-(7-(8-chloronaphthalen-1-yl)-2-(((R)-1-(1-(4-(3-(2,4-dihydroxy-5-methylphenyl)-5-hydroxy-4H-1,2,4-triazol-4-yl)benzyl)piperidine-4-carbonyl)pyrrolidin-3-yl)methoxy)-5,6,7,8-tetrahydropyrido[3,4-d]pyrimidin-4-yl)piperazin-2-yl)acetonitrile], the IC50 on HSP90a protein was in the range of 100 to 1000 nM. The EC50 in assay [1] is over 1000 nM.
In assay [1], `C=CC(=O)N1CCN(c2nc(OCCN3CCC(N4CCN(C(=O)C5CCN(Cc6ccc(-n7c(C(N)=O)nnc7-c7cc(C(C)C)c(O)cc7O)cc6)CC5)CC4)CC3)nc3c2CCN(c2cccc4cccc(Cl)c24)C3)C[C@@H]1CC#N` [Compound 249, (S)-4-(4-((4-(4-(1-(2-((4-(4-acryloyl-3-(cyanomethyl)piperazin-1-yl)-7-(8-chloronaphthalen-1-yl)-5,6,7,8-tetrahydropyrido[3,4-d]pyrimidin-2-yl)oxy)ethyl)piperidin-4-yl)piperazine-1-carbonyl)piperidin-1-yl)methyl)phenyl)-5-(2,4-dihydroxy-5-isopropylphenyl)-4H-1,2,4-triazole-3-carboxamide] had an EC50 of 100 to 1000 nM. The IC50 at KRAS(G12C) is under 100 nM.
Take `C=CC(=O)N1CCN(c2nc(OCCN3CCC(C(=O)N4CCN(Cc5ccc(-n6c(C(=O)NCCN7CCN(S(C)(=O)=O)CC7)nnc6-c6cc(C(C)C)c(O)cc6O)cc5)CC4)CC3)nc3c2CCN(c2cccc4cccc(Cl)c24)C3)C[C@@H]1CC#N` [Compound 242, (S)-4-(4-((4-(1-(2-((4-(4-acryloyl-3-(cyanomethyl)piperazin-1-yl)-7-(8-chloronaphthalen-1-yl)-5,6,7,8-tetrahydropyrido[3,4-d]pyrimidin-2-yl)oxy)ethyl)piperidine-4-carbonyl)piperazin-1-yl)methyl)phenyl)-5-(2,4-dihydroxy-5-isopropylphenyl)-N-(2-(4-(methylsulfonyl)piperazin-1-yl)ethyl)-4H-1,2,4-triazole-3-carboxamide]: the EC50 in assay [1] is 100 to 1000 nM. Moreover, the IC50 at KRAS(G12C) is under 100 nM.
In the case of `C=CC(=O)N1CCN(c2nc(OC[C@@H]3CC[C@H](C(=O)N4CCN(C(=O)C5CCN(Cc6ccc(-n7c(O)nnc7-c7cc(C(C)C)c(O)cc7O)cc6)CC5)CC4)N3C)nc3c2CCN(c2cccc4cccc(Cl)c24)C3)C[C@@H]1CC#N` [Compound 341, 2-[(2S)-4-[7-(8-chloronaphthalen-1-yl)-2-{[(2S,5R)-5-{4-[1-({4-[3-(2,4-dihydroxy-5-isopropylphenyl)-5-hydroxy-1,2,4-triazol-4-yl]phenyl}methyl)piperidine-4-carbonyl]piperazine-1-carbonyl}-1-methylpyrrolidin-2-yl]methoxy}-5H,6H,8H-pyri-do[3,4-d]pyrimidin-4-yl]-1-(prop-2-enoyl)piperazin-2-yl]acetonitrile], the IC50 at HSP90a protein and at KRAS(G12C) was under 100 nM each time.
On to `C=CC(=O)N1CCN(c2nc(OC[C@@H]3CCN(C(=O)c4ccc(Nc5cc(-n6nc(C(F)(F)F)c7c6CC(C)(C)CC7=O)ccc5C(N)=O)cc4)C3)nc3c2CCN(c2cccc4cccc(Cl)c24)C3)C[C@@H]1CC#N` [Compound 181, 2-((4-((R)-3-(((4-((S)-4-acryloyl-3-(cyanomethyl)piperazin-1-yl)-7-(8-chloronaphthalen-1-yl)-5,6,7,8-tetrahydropyrido[3,4-d]pyrimidin-2-yl)oxy)methyl)pyrrolidine-1-carbonyl)phenyl)amino)-4-(6,6-dimethyl-4-oxo-3-(trifluoromethyl)-4,5,6,7-tetrahydro-1H-indazol-1-yl)benzamide], for which the IC50 on HSP90a protein is over 1000 nM. The compound further returned an EC50 in assay [1] of over 1000 nM.
Take `C=CC(=O)N1CCN(c2nc(OCCN3CCC(C(=O)N4CCN(CCNC(=O)c5nnc(-c6cc(C(C)C)c(O)cc6O)n5-c5ccccc5)CC4)CC3)nc3c2CCN(c2cccc4cccc(Cl)c24)C3)C[C@@H]1CC#N` [Compound 243, (S)—N-(2-(4-(1-(2-((4-(4-acryloyl-3-(cyanomethyl)piperazin-1-yl)-7-(8-chloronaphthalen-1-yl)-5,6,7,8-tetrahydropyrido[3,4-d]pyrimidin-2-yl)oxy)ethyl)piperidine-4-carbonyl)piperazin-1-yl)ethyl)-5-(2,4-dihydroxy-5-isopropylphenyl)-4-phenyl-4H-1,2,4-triazole-3-carboxamide]: the EC50 in assay [1] was in the range of 100 to 1000 nM. Also, the IC50 on KRAS(G12C) is under 100 nM.
For `C=CC(=O)N1CCN(c2nc(OC[C@@H]3CC[C@H](C(=O)N4CCN(C(=O)C5CCN(Cc6ccc(-n7c(O)nnc7-c7cc(C)c(O)cc7O)cc6)CC5)CC4)N3C)nc3c2CCN(c2cccc4cccc(Cl)c24)C3)C[C@@H]1CC#N` [Compound 306, 2-[(2S)-4-[7-(8-chloronaphthalen-1-yl)-2-{[(2S,5R)-5-{4-[1-({4-[3-(2,4-dihydroxy-5-methylphenyl)-5-hydroxy-1,2,4-triazol-4-yl]phenyl}methyl)piperidine-4-carbonyl]piperazine-1-carbonyl}-1-methylpyrrolidin-2-yl]methoxy}-5H,6H,8H-pyrido [3,4-d]pyrimidin-4-yl]-1-(prop-2-enoyl)piperazin-2-yl]acetonitrile], the IC50 on HSP90a protein is under 100 nM. In assay [1], this compound returned an EC50 of over 1000 nM.
Regarding `C=CC(=O)N1CCN(c2nc(OC[C@@H]3C[C@@H](NC(=O)C4CCN(Cc5ccc(-n6c(C(=O)NCCN(CC)CC)nnc6-c6cc(C(C)C)c(O)cc6O)cc5)CC4)CN3C)nc3c2CCN(c2cccc4cccc(Cl)c24)C3)C[C@@H]1CC#N` [Compound 204, N-((3R,5S)-5-(((4-((S)-4-acryloyl-3-(cyanomethyl)piperazin-1-yl)-7-(8-chloronaphthalen-1-yl)-5,6,7,8-tetrahydropyrido[3,4-d]pyrimidin-2-yl)oxy)methyl)-1-methylpyrrolidin-3-yl)-1-(4-(3-((2-(diethylamino)ethyl)carbamoyl)-5-(2,4-dihydroxy-5-isopropylphenyl)-4H-1,2,4-triazol-4-yl)benzyl)piperidine-4-carboxamide], the IC50 on HSP90a protein was under 100 nM. In addition, in assay [1], the EC50 is over 1000 nM.
In turn, `C=C(F)C(=O)N1CCN(c2nc(OCCN3CCN(C(=O)c4ccc(-n5c(O)nnc5-c5cc(C(C)C)c(O)cc5O)cc4)CC3)nc3c2CCN(c2cccc4cccc(Cl)c24)C3)C[C@@H]1CC#N` [Compound 226] showed an IC50 on HSP90a protein of under 100 nM. This compound gave an EC50 in assay [1] of over 1000 nM.
